Reference: patent US4190647A, “Polypeptides and methods” (Sloan-Kettering Institute for Cancer Research, priority 1979, dated 1980)
Where a SMILES comes first, the peptide text is derived from it.

What was measured:
[1] = activity of terminally substituted pentapeptides in Twomey solution compared with the basic pentapeptide of Example I; type: cell-based
[2] = system: chicken bone marrow; assay: induction of Th-1 (T-cell) antigen on chicken bone marrow, cytotoxicity assay; type: cell-based; settings: peptide at 1 μg/mil (method text: 0.1 μg/ml); control incubations subtracted
Protocol: To determine the pharmacological activity and characteristics of these pentapeptides, use was made of the induction of Th-1 (T-cell) antigen on chicken bone marrow for use as an assay of the peptides at a concentration of 1 μg/mil. This method is described in Science, Brand et al, Vol. 193, pp. 319-321, July, 1976. In this method, pooled cells from femur and tibiotarsus of newly hatched chicks of strain SC (Hy-Line) are fractionated by ultracentrifugation on a five-layer discontinuous bovine serum albumin (BSA) gradient (11). Cells from each interface are washed and suspended for incubation at a concentration of 5×10^6 cells per milliliter with the peptide (0.1 μg/ml) in RPMI 1630 medium supplemented with 15 mM Hepes, 5 percent y-globulin-free fetal calf serum, deoxyribonuclease (14 to 18 unit/ml), heparin (5 unit/ml), penicillin (100 unit/ml), and streptomycin (100 μg/ml). Controls are incubated with BSA (1 μg/ml) or medium alone. After incubation, the cells are tested in the cytotoxicity assay using chicken and guinea pig complement fractions. The proportion of Bu-1^+ or Th-1^+ cells in each layer are calculated as a cytotoxicity index, 100 (a-b)/a, where a and b are the percentages of viable cells in the complement control and test preparation, respectively. The percentage of cells induced is obtained by subtracting the mean values in the control incubations without inducing agents (usually 1 to 3 percent) from those of the test inductions.

[3] = system: precursors present in bone marrow or spleen; settings: precursors from bone marrow or spleen; cited from earlier work

Molecule	% Induction of Th-1 (T-cell) antigen on chicken bone marrow [2] [%]	further results
CC[C@H](C)[C@H](NC(=O)[C@H](CC(N)=O)NC(=O)[C@H](Cc1ccc(O)cc1)NC(C)=O)C(=O)N[C@@H](CCC(N)=O)C(=O)N[C@@H](CCCCN)C(=O)O [Example III, CH3 CONH-TYR-ASN-ILE-GLN-LYS-COOH] (Ac-YNIQK-OH)		activity relative to the basic pentapeptide of Example I ([1]; 1 μg/ml in 14% Twomey solution): maximum and minimum activities comparable to the basic pentapeptide of Example I
CC[C@H](C)[C@H](NC(=O)[C@H](CC(N)=O)NC(=O)[C@@H](N)Cc1ccc(O)cc1)C(=O)N[C@@H](CCC(N)=O)C(=O)N[C@@H](CCCCN)C(N)=O [Example IV, H2 N-TYR-ASN-ILE-GLN-LYS-CONH2] (H-YNIQK-NH2)		activity relative to the basic pentapeptide of Example I ([1]; 1 μg/ml in 6% Twomey solution): activity comparable to the basic pentapeptide of Example I
CC[C@H](C)[C@H](NC(=O)[C@H](CC(N)=O)NC(=O)[C@H](C)N)C(=O)N[C@@H](CCC(N)=O)C(=O)N[C@@H](CCCCN)C(=O)O [Example XXII, H2 N-ALA-ASN-ILE-GLN-LYS-COOH] (H-ANIQK-OH)	12	
CC[C@H](C)[C@H](NC(=O)[C@H](C)NC(=O)[C@@H](N)Cc1ccc(O)cc1)C(=O)N[C@@H](CCC(N)=O)C(=O)N[C@@H](CCCCN)C(=O)O [Example XXIII, H2 N-TYR-ALA-ILE-GLN-LYS-COOH] (H-YAIQK-OH)	15	
C[C@H](NC(=O)[C@H](CC(N)=O)NC(=O)[C@@H](N)Cc1ccc(O)cc1)C(=O)N[C@@H](CCC(N)=O)C(=O)N[C@@H](CCCCN)C(=O)O [Example XXIV, H2 N-TYR-ASN-ALA-GLN-LYS-COOH] (H-YNAQK-OH)	21	
Ubiquitin		concentration inducing in vitro differentiation of both T-cell and B-cell immunocytes [3]: nanogram concentrations
